We go through one compound from paper PMC10573892, “β-Lactam TRPM8 Antagonists Derived from Phe-Phenylalaninol Conjugates: Structure–Activity Relationships and Antiallodynic Activity” (International Journal of Molecular Sciences, 2023).

Assay [1] addresses T1, hTRPM8 (Homo sapiens, UniProt Q7Z2W7).
T1 construct: expressed in transfected cells; host or cells: HEK293
The experiment in a line: Ca2+ microfluorimetry in HEK293 cells expressing human TRPM8. The class given is cell-based. The conditions noted are these: activation by 100 µM menthol; read-out: Ca^2+ Microfluorimetry Assays hTRPM8 IC50. How it is done:
To further characterize this family of compounds, calcium microfluorimetry assays were conducted using the HEK293 cell line, which expresses the human isoform of the TRPM8 channel. Amide derivatives 34 and 35 were selected, and their outcomes were compared with those of the model compound 1 (Table 4). […] This behavior is not particular of these β-lactams, but it is similar to those observed for other TRPM8 antagonists.
(§1) Calcium fluorometry, Patch-Clamp assays and in vivo experiments were performed using the methodology previously described for TRPM8 [35] or TRPM3 [61]. In the Patch -Clamp experiments, the intracellular pipette solution contained (in mM) 140 KCl, 5 EGTA, and 10 mM HEPES, adjusted to pH 7.2 with KOH, and the extracellular solution contained (in mM) 140 NaCl, 2 CaCl2, 1 MgCl2, 10 D-glucose and 10 HEPES, adjusted to pH 7.4 with NaOH. Selectivity against TRPV1, TRPV3, TRPA1 and ASIC3 was subcontracted to Eurofins-CEREP or Eurofins-PANLABS (see ref. [35] for more details).

For assay [2], the target named is T2, hTRPV1 (Homo sapiens, UniProt Q8NER1).
T2 construct: Eurofins-CEREP or Eurofins-PANLABS (contract assay)
The experiment in a line: TRPV1 channel Ca2+ microfluorimetry (capsaicin 30 nM). The class given is cell-based.
Text: (§2) The effects of compound 34 have been evaluated on different ion channels and receptors implicated in pain-related processes to assess the selectivity for TRPM8 channels. First, some TRP channels that play a role in temperature integration and nociception were selected, including hTRPV1, hTRPV3, hTRPA1 and TRPM3. Additionally, the evaluation encompassed the hASIC3 channel with widespread distribution within the peripheral nervous system and contributions to the excitability of primary sensory neurons. In each instance, the compound was subjected to evaluation at a consistent concentration of 10 µM.
as §1

Assay [3] has as its target T3, hTRPV3 (Homo sapiens, UniProt Q8NET8).
T3 construct: Eurofins-CEREP or Eurofins-PANLABS (contract assay)
T3 sequence (Q8NET8 1-790): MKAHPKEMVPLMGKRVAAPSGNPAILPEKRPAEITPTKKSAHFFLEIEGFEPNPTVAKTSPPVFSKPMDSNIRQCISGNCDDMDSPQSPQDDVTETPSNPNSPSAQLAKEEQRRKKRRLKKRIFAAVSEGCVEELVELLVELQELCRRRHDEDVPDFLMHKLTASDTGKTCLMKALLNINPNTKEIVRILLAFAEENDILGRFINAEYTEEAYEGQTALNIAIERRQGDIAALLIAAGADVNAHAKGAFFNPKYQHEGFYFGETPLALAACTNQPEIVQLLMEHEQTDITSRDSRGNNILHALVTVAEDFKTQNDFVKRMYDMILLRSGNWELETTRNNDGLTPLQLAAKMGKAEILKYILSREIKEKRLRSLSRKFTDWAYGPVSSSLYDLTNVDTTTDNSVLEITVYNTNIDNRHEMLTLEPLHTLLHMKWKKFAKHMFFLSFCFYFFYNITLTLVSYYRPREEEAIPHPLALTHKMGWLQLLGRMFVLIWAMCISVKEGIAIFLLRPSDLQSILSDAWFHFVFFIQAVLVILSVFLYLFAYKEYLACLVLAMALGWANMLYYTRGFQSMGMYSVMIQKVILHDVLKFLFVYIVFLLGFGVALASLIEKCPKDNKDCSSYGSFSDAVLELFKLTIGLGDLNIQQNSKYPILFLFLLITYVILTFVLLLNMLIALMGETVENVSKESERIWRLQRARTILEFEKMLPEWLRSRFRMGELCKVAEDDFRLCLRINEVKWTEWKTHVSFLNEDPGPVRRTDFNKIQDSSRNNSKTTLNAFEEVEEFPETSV
The experiment in a line: TRPV3 channel Ca2+ microfluorimetry (2-APB 30 μM). Type of assay: cell-based. The conditions noted are these: agonist 2-APB 30 μM.
Text: as §2, §1

In assay [4] the target is hTRPM3 (Homo sapiens, UniProt Q9HCF6). The experiment in a line: TRPM3 channel Ca2+ microfluorimetry (pregnenolone sulfate 50 µM). The class given is cell-based. The conditions noted are these: 10 μM; agonist pregnenolone sulfate 50 µM; read-out: % Channel Inhibition at 10 μM hTRPM3. As to the method:
First, some TRP channels that play a role in temperature integration and nociception were selected, including hTRPV1, hTRPV3, hTRPA1 and TRPM3. Additionally, the evaluation encompassed the hASIC3 channel with widespread distribution within the peripheral nervous system and contributions to the excitability of primary sensory neurons. In each instance, the compound was subjected to evaluation at a consistent concentration of 10 µM.
as §1

For assay [5], the system named is oxaliplatin-induced cold hypersensitivity. The experiment in a line: Oxaliplatin-induced cold allodynia in mice (acetone drop test). Type of assay: in vivo.
Text: It is established that treatments with the chemotherapeutic drug oxaliplatin (OXA) induce painful peripheral neuropathy, known as CIPN, which becomes more pronounced in cold conditions. The TRPM8 channel has been implicated in mouse models of CIPN pain induced by OXA [19, 51]. In fact, the OXA-induced peripheral neuropathy mouse model is being used for the pharmacological characterization of TRPM8 antagonists. For this peripheral neuropathy assay, mice were subcutaneously (s.c.) injected with OXA at a dose of 6 mg/kg dose on days 1, 3 and 5 to male mice to induce increased sensitivity to cold, which can be monitored through the acetone drop test.
Consequently, compounds 34 and 35 have been tested for their ability to alleviate OXA-induced cold hypersensitivity after intraplantar administration (i.pl., 3, 1 and 0.1 μg). […] This effect was observed 15 min post-administration and sustained up to 60 min.
as §1
Figure 4 Effects of compounds 34 (A) and 35 (B) on the oxaliplatin (OXP)-induced cold hypersensitivity (drop acetone test). Peripheral neuropathy was induced in male mice by injecting OXA (6 mg/kg, s.c.) on days 1, 3 and 5. Control animals were treated with vehicle. Compounds 34 (A) and 35 (B) (3 µg/i.pl., 1 µg/i.pl. and 0.1 µg/i.pl.) were administered to the OXP-treated animals, and the time-course of cold hypersensitivity was measured. Data are given ± SEM (n = 5). Statistical analysis, comparing with oxaliplatin-treated mice, was performed by two-way ANOVA followed by post hoc Bonferroni test by multiple comparisons: * […], ** p < 0.01, **** p < 0.0001.

SMILES strings stand for the structures.

T2 sequence (Q8NER1 whole entry): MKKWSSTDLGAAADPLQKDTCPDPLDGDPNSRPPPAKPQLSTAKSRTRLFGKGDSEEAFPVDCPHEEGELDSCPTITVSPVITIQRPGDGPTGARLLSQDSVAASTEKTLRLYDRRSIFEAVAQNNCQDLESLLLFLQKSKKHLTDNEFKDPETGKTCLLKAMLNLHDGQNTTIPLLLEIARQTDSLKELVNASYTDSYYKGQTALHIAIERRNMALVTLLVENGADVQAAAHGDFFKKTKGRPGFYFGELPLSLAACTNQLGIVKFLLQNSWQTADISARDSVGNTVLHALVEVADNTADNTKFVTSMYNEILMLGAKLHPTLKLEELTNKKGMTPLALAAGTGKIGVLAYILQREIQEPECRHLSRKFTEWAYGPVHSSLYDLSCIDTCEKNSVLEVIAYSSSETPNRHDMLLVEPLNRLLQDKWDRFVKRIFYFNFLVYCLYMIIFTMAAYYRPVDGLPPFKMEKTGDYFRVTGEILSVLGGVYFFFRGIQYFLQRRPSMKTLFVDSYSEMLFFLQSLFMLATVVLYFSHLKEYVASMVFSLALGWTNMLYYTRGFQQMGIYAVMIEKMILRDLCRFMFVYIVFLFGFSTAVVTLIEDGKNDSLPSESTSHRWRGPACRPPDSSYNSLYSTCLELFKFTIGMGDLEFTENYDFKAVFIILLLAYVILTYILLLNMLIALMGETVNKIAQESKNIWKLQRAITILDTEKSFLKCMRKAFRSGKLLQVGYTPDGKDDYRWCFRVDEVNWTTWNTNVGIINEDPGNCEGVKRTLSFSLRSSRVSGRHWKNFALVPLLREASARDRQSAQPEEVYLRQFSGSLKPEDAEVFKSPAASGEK
T1 sequence (Q7Z2W7 whole entry): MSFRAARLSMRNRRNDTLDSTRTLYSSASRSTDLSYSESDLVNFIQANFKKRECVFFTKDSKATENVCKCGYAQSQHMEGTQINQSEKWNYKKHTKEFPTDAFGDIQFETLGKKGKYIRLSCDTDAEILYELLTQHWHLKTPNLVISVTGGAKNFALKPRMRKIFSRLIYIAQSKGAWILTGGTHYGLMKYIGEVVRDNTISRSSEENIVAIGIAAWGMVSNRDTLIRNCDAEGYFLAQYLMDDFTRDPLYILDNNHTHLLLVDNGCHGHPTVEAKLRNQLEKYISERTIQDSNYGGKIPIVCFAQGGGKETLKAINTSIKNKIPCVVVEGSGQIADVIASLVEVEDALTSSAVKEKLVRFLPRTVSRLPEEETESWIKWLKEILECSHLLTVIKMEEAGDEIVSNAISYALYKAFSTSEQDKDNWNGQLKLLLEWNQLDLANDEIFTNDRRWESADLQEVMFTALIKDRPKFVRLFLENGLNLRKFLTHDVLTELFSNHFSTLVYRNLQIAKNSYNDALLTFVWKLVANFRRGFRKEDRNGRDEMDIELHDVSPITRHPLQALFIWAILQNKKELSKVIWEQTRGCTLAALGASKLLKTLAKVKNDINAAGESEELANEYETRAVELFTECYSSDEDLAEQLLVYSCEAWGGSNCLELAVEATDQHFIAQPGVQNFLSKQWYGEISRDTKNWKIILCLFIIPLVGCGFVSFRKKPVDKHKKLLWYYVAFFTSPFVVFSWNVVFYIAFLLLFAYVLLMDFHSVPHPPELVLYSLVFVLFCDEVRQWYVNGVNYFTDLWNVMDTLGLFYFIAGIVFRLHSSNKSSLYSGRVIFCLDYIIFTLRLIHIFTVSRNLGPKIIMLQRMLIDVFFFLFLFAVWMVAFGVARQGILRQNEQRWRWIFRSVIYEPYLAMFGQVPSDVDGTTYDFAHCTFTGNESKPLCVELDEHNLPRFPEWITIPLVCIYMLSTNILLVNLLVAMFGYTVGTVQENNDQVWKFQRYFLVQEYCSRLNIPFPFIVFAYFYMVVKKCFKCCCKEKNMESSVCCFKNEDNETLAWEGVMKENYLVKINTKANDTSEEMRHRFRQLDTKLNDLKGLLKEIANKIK
Chain of hTRPM3 (Q9HCF6 whole entry): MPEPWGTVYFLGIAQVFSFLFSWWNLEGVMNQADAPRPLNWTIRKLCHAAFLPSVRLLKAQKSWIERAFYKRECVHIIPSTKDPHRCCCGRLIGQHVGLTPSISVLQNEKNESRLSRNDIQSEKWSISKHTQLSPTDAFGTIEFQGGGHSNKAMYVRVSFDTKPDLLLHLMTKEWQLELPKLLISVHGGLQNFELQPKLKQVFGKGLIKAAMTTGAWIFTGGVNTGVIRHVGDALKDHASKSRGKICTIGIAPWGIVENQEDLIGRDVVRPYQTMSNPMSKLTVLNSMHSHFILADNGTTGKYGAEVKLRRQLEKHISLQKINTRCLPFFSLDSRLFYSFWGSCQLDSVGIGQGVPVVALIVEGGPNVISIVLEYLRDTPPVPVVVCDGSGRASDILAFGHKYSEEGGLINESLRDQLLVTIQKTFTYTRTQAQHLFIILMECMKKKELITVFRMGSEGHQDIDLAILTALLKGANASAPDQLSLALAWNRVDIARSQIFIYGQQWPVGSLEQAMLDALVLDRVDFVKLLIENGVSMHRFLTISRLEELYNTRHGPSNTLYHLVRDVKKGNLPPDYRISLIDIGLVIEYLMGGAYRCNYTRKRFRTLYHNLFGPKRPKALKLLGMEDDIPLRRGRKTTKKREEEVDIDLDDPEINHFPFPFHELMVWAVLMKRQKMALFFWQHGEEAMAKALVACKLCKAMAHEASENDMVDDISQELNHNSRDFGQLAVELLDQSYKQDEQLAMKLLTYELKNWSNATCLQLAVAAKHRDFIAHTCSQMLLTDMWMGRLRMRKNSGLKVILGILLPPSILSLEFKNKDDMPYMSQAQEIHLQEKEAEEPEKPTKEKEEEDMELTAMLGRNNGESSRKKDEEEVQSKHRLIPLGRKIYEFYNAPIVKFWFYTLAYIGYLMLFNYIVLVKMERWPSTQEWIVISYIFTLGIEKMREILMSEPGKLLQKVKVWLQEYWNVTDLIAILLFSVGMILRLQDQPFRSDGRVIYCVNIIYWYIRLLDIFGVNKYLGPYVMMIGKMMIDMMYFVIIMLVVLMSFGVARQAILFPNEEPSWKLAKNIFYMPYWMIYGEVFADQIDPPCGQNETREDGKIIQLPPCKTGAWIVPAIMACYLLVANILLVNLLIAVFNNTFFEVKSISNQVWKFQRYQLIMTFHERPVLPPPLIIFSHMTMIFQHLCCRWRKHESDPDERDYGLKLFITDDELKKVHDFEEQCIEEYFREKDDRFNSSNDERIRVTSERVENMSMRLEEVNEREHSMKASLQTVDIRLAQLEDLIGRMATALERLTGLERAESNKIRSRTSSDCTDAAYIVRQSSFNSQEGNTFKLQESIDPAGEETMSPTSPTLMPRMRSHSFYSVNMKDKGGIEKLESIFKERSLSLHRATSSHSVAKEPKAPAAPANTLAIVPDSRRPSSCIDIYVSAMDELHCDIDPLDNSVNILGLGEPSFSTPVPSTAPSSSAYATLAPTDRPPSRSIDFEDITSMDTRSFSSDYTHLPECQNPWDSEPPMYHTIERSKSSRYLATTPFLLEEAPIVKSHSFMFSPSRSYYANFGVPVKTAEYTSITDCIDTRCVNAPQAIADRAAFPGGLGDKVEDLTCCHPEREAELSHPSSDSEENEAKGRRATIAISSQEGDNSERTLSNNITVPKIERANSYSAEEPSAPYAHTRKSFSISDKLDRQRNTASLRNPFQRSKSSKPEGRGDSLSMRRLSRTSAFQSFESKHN

Take `CC(C)CNC(=O)[C@]1(Cc2ccccc2)[C@H](C)C(=O)N1C[C@H](Cc1ccccc1)N(Cc1ccccc1)Cc1ccccc1` [Compound 34, 4S-Benzyl-4-[N-(iso-butyl)-carbamoyl]-3S-methyl-1-[(2′S-dibenzylamino-3′-phenyl)prop-1′-yl]-2-oxoazetidine]: the IC50 in assay [1] amounted to 2580 ± 1240 nM. Also, in assay [2] (10 µM), the “activation on the TRPV1 channel” value is listed as “did not show activation”. Also, the inhibition at 10 µM in assay [2] (10 μM, agonist capsaicin 30 nM) was 8.9 ± 2.9%; in assay [3] it was 17.3 ± 5.7%; in assay [4], 6.9 ± 10.7%. Besides, the “time the antiallodynic effect is sustained” value in assay [5] (i.pl., observed from 15 min post-administration) is given as “up to 60 min”. Moreover, the “effect on cold-induced paw licking” value in assay [5] (male mice, OXA 6 mg/kg s.c. days 1, 3, 5, i.pl. 3, 1 and 0.1 μg) was “dose-dependent and significant reduction”.
